The values that follow come from patent US6596701B1, “S-adenosyl methionine regulation of metabolic pathways and its use in diagnosis and therapy” (MediQuest Therapeutics, Inc., priority 1995, dated 2003).

Where two headings read alike, the source gives them in different places. Some results are limits rather than exact numbers.

One data set relates to SAM concentrations. The note with it: Bacchi et al. 1987; cited from earlier work.
Data set [1] deals with gastric mucosal stress ulcers. The settings on record: polyamine-stimulated healing, Wang et al.; cited from earlier work.
For the next data set, the system named is puncture wounds. Nature of the data set: Mouse puncture wound model, Experiment 3 (about 6 mm wounds, wound area, varied compositions). It is filed as in vivo. The note with it: comparison of Groups A-D, each compound 0.18 mg/ml. How it is done: This study was similar to Experiment 2, with the following changes. 1. […] 2. […] 3. Test or control compositions were applied daily. Compounds in each test composition were varied 4. N=10 mice per group 5. The each compound in the test compositions was present at a concentration of 0.18 mg/ml. [table]

Data set [2] concerns the target methyl transferase which acts on MBP. The settings on record: methyl transferase with subunits of 75 and 100 kDa; cited from earlier work.
The conditions of data set [3]: cited from earlier work.
The next data set has as its system LDHκ. The experiment in a line: LDHκ activity in HeLa cell extracts with SAM added. Format: biochemical, human. The settings on record: addition of SAM to the assay mixture.
Another data set deals with AD patients. The note with it: Cohen et al. 1988; cited from earlier work.
Data set [4] relates to RNA polymerase II and synthesis of RNA. The settings on record: biotin-deficient rats, within 2 hours after injection of biotin; cited from earlier work.
A further data set relates to 3T3 cells. The settings on record: cited from earlier work.
The subject of a further data set is cultured rat hepatocytes. The note with it: within 6 hours, cited from earlier work.
Data set [5] relates to genetically diabetic mice. The settings on record: Reddi et al. 1988; cited from earlier work.
The test system of the next data set is RSV-infected cells. The settings on record: cited from earlier work.
Data set [6] concerns tumor. The note with it: Briggs 1959; tumor size attained prior to treatment was not reduced; cited from earlier work.
In another data set the test system is injured skin. The note with it: compared to injured skin of saline-treated controls, Smith et al. 1989; cited from earlier work.
The test system of data set [7] is tumor. The note with it: mouse model, cited from earlier work.
A further data set deals with tRNA in tumor cells. The settings on record: tumor-bearing mice; cited from earlier work.

On to `NCCCC(N)(C(=O)O)C(F)F` (racemic) [DL-α-difluoromethylornithine], for which the “increase SAM concentrations” value with SAM concentrations was at most 48 fold. In data set [1], the “healing process of gastric mucosal stress ulcers” value is “significantly inhibited”.

Turning to `NC1(C(=O)O)CC1` [ACC, 1-aminocyclopropanecarboxylic acid], the “synergy in promoting wound healing” value in the data set on puncture wounds was “act synergistically in promoting wound healing”.

Take `Nc1ncnc2c1ncn2[C@@H]1O[C@H](CSCC[C@H](N)C(=O)O)[C@@H](O)[C@H]1O` [SAH, S-adenosyl-L-homocysteine]: the Ki – broadly, a dissociation constant, usually derived from enzyme kinetics or from competition with a known ligand – in [2] is 1000 nM.

Take `C[S+](CC[C@H](N)C(=O)O)C[C@H]1O[C@@H](n2cnc3c(N)ncnc32)[C@H](O)[C@@H]1O.C[S+](CC[C@H](N)C(=O)O)C[C@H]1O[C@@H](n2cnc3c(N)ncnc32)[C@H](O)[C@@H]1O.O=S(=O)([O-])[O-]` (stereo partly drawn) [SAM sulfate]: the “stable for” value in data set [3] (4° C.) is listed as 6 months.

For the compound `C[S+](CC[C@H](N)C(=O)O)C[C@H]1O[C@@H](n2cnc3c(N)ncnc32)[C@H](O)[C@@H]1O` (stereo partly drawn) [SAM, S-adenosyl-L-methionine], the “increase in activity of LDHκ” value with LDHκ is given as 8-10 fold. Further, in the data set with AD patients, the membrane fluidity entry is given as “increased of membrane fluidity” and the symptoms result was “no improvement nor worsening of symptoms”.

Turning to `O=C(O)CCCC[C@@H]1SC[C@@H]2NC(=O)N[C@@H]21` [biotin], in the data set on puncture wounds, the “synergy in promoting wound healing” value was “act synergistically in promoting wound healing”. Besides, in [4], the “increase in RNA polymerase II” value is 2 fold and the “increase in the synthesis of RNA” value was 2 fold. In addition, in the data set with 3T3 cells (differentiation with biotin), the GAPDH increased was 8 fold, the aldolase increased is given as 20-30 fold and the glycerophosphate dehydrogenase increased is reported as 2,000 fold. Also, the “actin, % of total protein after treatment” value with 3T3 cells (from 12.7% prior to treatment with biotin) was 3.2 % of total protein. In addition, in the data set on cultured rat hepatocytes (required the presence of insulin), the increase in glucokinase is reported as 4 fold. The “increase in cGMP” value in the data set with cultured rat hepatocytes is 3 fold. For the same compound, in [5], the “glucose and insulin tolerance” value is “improves glucose and insulin tolerance”.

Turning to `C[S+](CC[C@H](N)C(=O)O)C[C@H]1O[C@@H](n2cnc3c(N)ncnc32)[C@H](O)[C@@H]1O.[Cl-]` (stereo partly drawn) [chloride salt of SAM], the “loss of activity per day” value in data set [3] (25° C.) is listed as 10 % of activity per day.

Regarding `NC1(C(=O)O)CCCC1` [cycloleucine], in the data set on RSV-infected cells (RSV-infected cells, concentrations used), the “inhibition of cellular methylation” value was 95%. Also, the “RSV-specific mRNAs found” value with RSV-infected cells (concentrations which inhibit 95% of cellular methylation) is “only the 35S viral mRNA is found”.

For the compound `C[C@@H]1NC(=O)N[C@@H]1CCCCCC(=O)O` [desthiobiotin, reference compound], the antitumor effects entry with tumor [6] is “further tumor growth was prevented”.

As to `NC(=O)c1cccnc1` [nicotinamide], the “capillary density in injured skin” value in the data set on injured skin is “increases the capillary density in injured skin significantly”.

For the compound `Nc1nc2[nH]cc(CN[C@H]3C=C[C@H](O)[C@@H]3O)c2c(=O)[nH]1` [queuine], the effect on tumor result is given as “shrinkage of the tumor” in the data set with tumor [7] (Katze et al. 1980) and “no effect” in the data set with tumor [7] (Nishimura et al. 1983, cancer of different type).

Consider `Nc1nc2c(c(CN[C@H]3C=C[C@H](O)[C@@H]3O)cn2[C@@H]2O[C@H](CO)[C@@H](O)[C@H]2O)c(=O)[nH]1` [queuosine], for which, in the data set on tRNA in tumor cells, the “conversion of G-tRNA to QtRNA in tumor cells” value is reported as “complete conversion”.

Take “avidin: the biotin-binding protein avidin”: the antitumor effects result with tumor [6] is listed as “further tumor growth was prevented”.
